Measured values published in ChEMBL document CHEMBL4177632 (Bioorg Med Chem, 2017).

What was measured:
[1] = target: T1, Aldo-keto reductase family 1 member B1 (Rattus norvegicus, UniProt P07943); test: Inhibition of ALR2 in Wistar rat eye lens assessed as reduction in NADPH consumption preincubated for 1 min followed by D,L-glyceraldehyde addition measured after 4 mins by spectrophotometric analysis
[2] = target: Aldo-keto reductase family 1 member A1 (Rattus norvegicus, UniProt P51635); test: Inhibition of ALR1 in Wistar rat kidney assessed as reduction in NADPH consumption preincubated for 1 min followed by substrate addition measured after 4 mins by spectrophotometric analysis
Aldo-keto reductase family 1 member A1, sequence (P51635 whole entry, looked up): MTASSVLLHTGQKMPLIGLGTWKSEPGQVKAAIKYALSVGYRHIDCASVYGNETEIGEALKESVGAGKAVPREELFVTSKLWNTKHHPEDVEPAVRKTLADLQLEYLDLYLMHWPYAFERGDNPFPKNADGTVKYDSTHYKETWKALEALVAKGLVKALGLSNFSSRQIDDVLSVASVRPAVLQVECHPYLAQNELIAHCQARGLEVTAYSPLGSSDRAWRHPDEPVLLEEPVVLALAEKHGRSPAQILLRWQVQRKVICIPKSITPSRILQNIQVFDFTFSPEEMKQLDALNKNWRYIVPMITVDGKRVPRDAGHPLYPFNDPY

[3] = target: T2, Aldo-keto reductase family 1 member B1 (Homo sapiens, UniProt P15121); test: Inhibition of recombinant human AKR1B1 using D,L-glyceraldehyde as substrate
[4] = target: T1, Aldo-keto reductase family 1 member B1; test: Uncompetitive inhibition of ALR2 in Wistar rat eye lens assessed as reduction in NADPH consumption preincubated for 1 min followed by D,L-glyceraldehyde addition measured after 4 mins by spectrophotometric analysis
[5] = target: Aldo-keto reductase family 1 member B10 (Homo sapiens, UniProt O60218); test: Inhibition of recombinant human AKR1B10
Aldo-keto reductase family 1 member B10, sequence (O60218 whole entry): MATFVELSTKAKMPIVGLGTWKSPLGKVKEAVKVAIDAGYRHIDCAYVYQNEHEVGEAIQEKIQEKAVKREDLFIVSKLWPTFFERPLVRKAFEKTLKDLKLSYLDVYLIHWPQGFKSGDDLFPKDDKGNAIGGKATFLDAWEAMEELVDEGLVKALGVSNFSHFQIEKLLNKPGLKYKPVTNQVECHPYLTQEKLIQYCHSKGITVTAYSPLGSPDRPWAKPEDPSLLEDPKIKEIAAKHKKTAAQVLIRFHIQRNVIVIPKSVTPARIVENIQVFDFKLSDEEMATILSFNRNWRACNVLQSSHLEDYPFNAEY

[6] = target: T2, Aldo-keto reductase family 1 member B1; test: Uncompetitive inhibition of recombinant human AKR1B1 using D,L-glyceraldehyde as substrate

IC50 [1]	IC50 [2]	IC50 [3]	Ki [4]	IC50 [5]	Ki [6]	SMILES
34200 nM	> 100000 nM					CC(C)N1CCc2c(c3ccccc3n2CC(=O)O)C1
169 nM	11200 nM					CC(=O)c1c(C)n(CC(=O)O)c2ccccc12
340 nM	11800 nM					Cc1c(C=O)c2ccccc2n1CC(=O)O
12.7 nM	4840 nM					CCOC(=O)N1CCc2c(c3cc(C(=O)O)ccc3n2CC(=O)O)C1
20.5 nM	21900 nM					CC(=O)N1CCc2c(c3ccccc3n2CC(=O)O)C1
57.5 nM	7540 nM					O=C(O)Cn1c2c(c3ccccc31)CN(C(=O)C1CC1)CC2
12.6 nM	9980 nM	83.5 nM	16.9 nM	9430 nM	66.1 nM	CCOC(=O)N1CCc2c(c3cc(OC)ccc3n2CC(=O)O)C1
